Experimental data: patent publication US8063225B2, “Tricyclic compound derivatives useful in the treatment of neoplastic diseases, inflammatory disorders and immunomodulatory disorders” (Chembridge Corporation, priority 2006, dated 2011)

Tests used:
[1] = target: T1, IGF1R tyrosine kinase (Homo sapiens, UniProt P08069); assay: IGF1R tyrosine kinase assay (Kinase-Glo ATP depletion or PT66/PT100 AlphaScreen); settings: biochemical tyrosine kinase assay
T1 construct: 6×His- or GST-tagged kinase domain fragments of the corresponding RTKs expressed in baculovirus system; host or cells: baculovirus system
T1 sequence (P08069 999-1274 limits assumed): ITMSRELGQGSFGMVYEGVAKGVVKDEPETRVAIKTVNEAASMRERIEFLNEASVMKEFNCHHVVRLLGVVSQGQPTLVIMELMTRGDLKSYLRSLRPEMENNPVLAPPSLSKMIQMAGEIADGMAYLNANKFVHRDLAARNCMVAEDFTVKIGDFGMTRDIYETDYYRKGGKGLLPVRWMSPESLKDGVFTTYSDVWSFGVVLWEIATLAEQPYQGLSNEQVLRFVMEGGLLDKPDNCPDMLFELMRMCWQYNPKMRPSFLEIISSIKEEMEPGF
In short: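 Baculovirus-expressed His- or GST-tagged kinase domains with poly(Glu-Tyr) substrate, 10 μM ATP, pH 7.5 Tris with MgCl2/MnCl2. Kinase-Glo: 60 min at 37 °C, residual ATP by luminescence; AlphaScreen: 30 min at RT, then anti-phosphotyrosine beads 60 min. Eight concentrations, 1 nM to 20 μM; IC50 by nonlinear regression.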

[2] = target: T2, IGF1 receptor (Homo sapiens, UniProt P08069); assay: ELISA-based assay of IGF1 receptor autophosphorylation inhibition in cells; assay type: cell-based; settings: IGF1R phosphorylation inhibition in MCF7 cells
T2 construct: MCF7 human breast cancer cells expressing IGF1 receptor; endogenous in cells; host or cells: MCF7 human breast cancer cells
T2 sequence (P08069 741-1367 limits assumed): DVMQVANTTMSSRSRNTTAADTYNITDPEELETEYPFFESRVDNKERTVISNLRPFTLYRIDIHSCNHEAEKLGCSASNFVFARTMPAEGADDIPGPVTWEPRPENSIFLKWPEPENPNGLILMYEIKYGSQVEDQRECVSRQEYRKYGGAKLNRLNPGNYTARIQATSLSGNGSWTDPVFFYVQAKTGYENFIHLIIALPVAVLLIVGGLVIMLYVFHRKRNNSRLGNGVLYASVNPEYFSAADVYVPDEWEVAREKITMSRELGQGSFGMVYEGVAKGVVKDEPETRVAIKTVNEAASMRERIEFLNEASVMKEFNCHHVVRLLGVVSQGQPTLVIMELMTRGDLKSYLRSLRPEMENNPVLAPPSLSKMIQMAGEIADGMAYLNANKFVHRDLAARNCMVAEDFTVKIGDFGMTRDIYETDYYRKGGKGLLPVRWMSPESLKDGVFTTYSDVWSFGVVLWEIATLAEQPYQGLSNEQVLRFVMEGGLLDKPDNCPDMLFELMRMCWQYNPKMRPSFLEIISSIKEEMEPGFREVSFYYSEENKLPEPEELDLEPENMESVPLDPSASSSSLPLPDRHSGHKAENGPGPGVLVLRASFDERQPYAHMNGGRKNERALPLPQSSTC
T2 sequence (P08069 31-736 partner limits assumed): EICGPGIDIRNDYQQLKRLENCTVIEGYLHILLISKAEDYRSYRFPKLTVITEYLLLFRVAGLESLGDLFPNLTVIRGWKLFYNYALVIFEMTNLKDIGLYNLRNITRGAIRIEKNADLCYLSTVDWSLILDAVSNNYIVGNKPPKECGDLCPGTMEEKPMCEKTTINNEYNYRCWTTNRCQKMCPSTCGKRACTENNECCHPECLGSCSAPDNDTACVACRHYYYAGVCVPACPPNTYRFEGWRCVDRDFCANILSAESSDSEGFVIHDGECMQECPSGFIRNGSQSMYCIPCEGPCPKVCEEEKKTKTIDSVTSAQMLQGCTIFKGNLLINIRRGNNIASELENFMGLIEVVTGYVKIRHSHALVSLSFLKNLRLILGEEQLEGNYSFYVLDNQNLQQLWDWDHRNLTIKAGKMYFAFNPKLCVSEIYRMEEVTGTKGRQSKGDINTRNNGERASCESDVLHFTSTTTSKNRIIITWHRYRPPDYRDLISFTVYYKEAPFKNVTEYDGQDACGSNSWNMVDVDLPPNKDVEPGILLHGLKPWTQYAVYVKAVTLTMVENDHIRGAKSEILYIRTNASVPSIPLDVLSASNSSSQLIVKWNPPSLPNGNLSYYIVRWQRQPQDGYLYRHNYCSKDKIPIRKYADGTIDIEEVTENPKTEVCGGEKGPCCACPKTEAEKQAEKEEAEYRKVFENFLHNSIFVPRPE
In short: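 MCF7 cells or NIH 3T3 overexpressing full-length IGF1R, serum-starved overnight, treated with inhibitor 1 h at 37 °C (1% DMSO), then stimulated 10 min with 100 nM IGF-1. Lysates captured on anti-IGF1R-coated plates; receptor phosphotyrosine detected with 4G10-HRP and TMB, absorbance 450 nm.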

SMILES | IC50 [1] | IC50 [2]
CN1CCC(N2C(=O)c3cc4nc(-c5c(NC[C@@H](O)COc6ccc7ccccc7c6)cc[nH]c5=O)[nH]c4cc3C2=O)CC1 [compound 88] | 0.5 to 5 µM | 0.5 to 5 µM
Cc1cc(C)n(C[C@H](O)CNc2cc[nH]c(=O)c2-c2nc3cc4c(cc3[nH]2)C(=O)N(C2CCN(C)CC2)C4=O)n1 [compound 92] | 5 to 15 µM | 0.5 to 5 µM
Cc1ccc(OCC(O)CNc2cc[nH]c(=O)c2-c2nc3cc4c(cc3[nH]2)C(=O)N(C2CCN(C)CC2)C4=O)c(C)c1 (centres unmarked) [compound 15] | < 0.5 µM | 0.5 to 5 µM
CN1CCC(N2C(=O)c3cc4nc(-c5c(NC[C@@H](O)COc6cccc(Cl)c6F)cc[nH]c5=O)[nH]c4cc3C2=O)CC1 [compound 96] | 0.5 to 5 µM | 5 to 15 µM
